In patent US10071164B2, “Estrogen-related receptor alpha based protac compounds and associated methods of use” (Yale University, priority 2014, dated 2018):

Target: T1, ERRα (Homo sapiens, UniProt P11474)
T1 sequence (P11474 1-423): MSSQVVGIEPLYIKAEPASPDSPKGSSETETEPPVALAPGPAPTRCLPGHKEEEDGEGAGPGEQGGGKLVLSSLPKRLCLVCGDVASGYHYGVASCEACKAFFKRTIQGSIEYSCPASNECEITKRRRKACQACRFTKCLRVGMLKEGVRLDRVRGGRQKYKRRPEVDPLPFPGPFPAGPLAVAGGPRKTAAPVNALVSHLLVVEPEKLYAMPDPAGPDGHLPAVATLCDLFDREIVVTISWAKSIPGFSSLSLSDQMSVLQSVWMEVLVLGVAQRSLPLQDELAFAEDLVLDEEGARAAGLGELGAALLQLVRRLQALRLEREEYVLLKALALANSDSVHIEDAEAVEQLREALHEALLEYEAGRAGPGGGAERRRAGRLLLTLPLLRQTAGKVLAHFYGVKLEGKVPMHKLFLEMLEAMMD
Assay: ERRα degradation in MCF-7 cells
Format: cell-based
Parameters: endogenous in cells; host or cells: MCF-7 (ATCC)
Details: MCF7, column A, read-out: ERRα Degradation Dmax (Estimated) MCF-7 cells
Procedure: Human MDA-MB-231 and MCF7 cells (purchased authenticated ATCC cell lines) were cultured in complete growth medium (Dulbecco's modified Eagle's medium (DMEM)/F12 supplemented with 10% FBS; Life Technologies) and grown at 37° C. with 5% CO2. THP-1 cells (ATCC) were cultured in RPMI 1640+10% FBS and were grown at 37° C. with 5% CO2. For cellular degradation of ERRα, MCF7 cells were seeded in a 24-well plate at 70% confluency, allowed to attach overnight, and incubated with the indicated compounds. For cellular degradation of RIPK2, 5×10^6 cells were incubated with the indicated compounds. When indicated, a 1-hour pretreatment with 1 μM epoxomicin was performed before the addition of compound. When indicated for washout studies, after PROTAC treatment, cells were washed repeatedly with PBS and incubated with complete medium for the indicated time before harvesting. The THP1 cell line has been authenticated using the Promega GenePrint10 kit to generate a STR Profile for comparison to the expected profile reported by ATCC. Cells were also routinely tested and negative for mycoplasma. Cell lines were routinely tested for mycoplasma contamination at Clongen (Gaithersburg, Md.).
Total protein concentrations of tissue homogenates and cell lysates were determined by Pierce BCA kit (Thermo Fisher). Homogenates or lysates were separated on 4-12% NuPAGE gels (Life Technologies) and transferred onto PVDF membranes (iBlot; Life Technologies). Membranes were blocked with 5% non-fat milk in TBST (0.1% Tween-20 in Tris-Buffered Saline) before overnight incubation with indicated antibodies. After incubation with the appropriate horseradish peroxidase-conjugated secondary antibodies, the bands were visualized by enhanced chemiluminescence (Pierce West Femto ECL). The intensity of the bands was quantified with Bio-Rad Quantity One software. When the IRDye secondary antibodies were used, the infrared signal was detected using an Odyssey scanner (Li-COR Biosciences) and the densitometry was performed using the Odyssey 2.1 Analyser software. The IRDye secondary antibodies anti-mouse (926-32212) and anti-mouse (926-68072) were purchased from Li-COR Biosciences and used at a 1:5,000 dilution. Statistical analysis of tissue densitometry levels were performed with GraphPad Prism software using the indicated statistical test.
(§1) Using the methods as described herein, the following exemplary PROTAC compounds were prepared (see Table below). The exemplary compounds were also assayed for their ability to effectuate the degration of ERRα in either MCF-7 cells or ST-486 cells. Thus, in certain embodiments, the description provides the compounds below, including compositions comprising effective amount of a compound as listed below or a derivative, analog, or a prodrug of the same, in combination with at least one of a pharmaceutically acceptable carrier, another active agent, including a second PROTAC molecule as described herein or a combination thereof. In additional embodiments, the disclosure provides a method of treating a disease or condition in a subject in need thereof, comprising administering a composition comprising an effective amount of a compound listed below, wherein the composition is effective for treating or ameliorating a symptom of the disease or condition.
(§2) Legend for following table: A=ERRα Degradation Dmax (Estimated) MCF-7 cells; B=ERRα Degradation DC50 (Estimated) MCF-7 cells; C=ERRα Degradation Dmax (Estimated) ST-486 cells; D=ERRα Degradation DC50 (Estimated) ST-486 cells

Dmax [%]	SMILES
90	COc1cc(/C=C2\SC(=O)N(CCOCCOCCOCCOc3cc(-c4scnc4C)ccc3CNC(=O)[C@@H]3C[C@@H](O)CN3C(=O)[C@H](C(C)C)N3Cc4ccccc4C3=O)C2=O)ccc1Oc1ccc(C#N)cc1C(F)(F)F [ARV N000198]
90	COc1cc(/C=C2\SC(=O)N(CCOCCOCCCOCCOCCOc3cc(-c4scnc4C)ccc3CNC(=O)[C@@H]3C[C@@H](O)CN3C(=O)[C@H](C(C)C)N3Cc4ccccc4C3=O)C2=O)ccc1Oc1ccc(C#N)cc1C(F)(F)F [ARV N000199]
98	COc1cc(/C=C2\SC(=O)N(CCOCCOCCOCCOCCOc3cc(-c4scnc4C)ccc3CNC(=O)[C@@H]3C[C@@H](O)CN3C(=O)[C@H](C(C)C)N3Cc4ccccc4C3=O)C2=O)ccc1Oc1ccc(C#N)cc1C(F)(F)F [ARV N000219]
85	COc1cc(/C=C2\SC(=O)N(CCOCCOCCOCCOCCOCCOc3cc(-c4scnc4C)ccc3CNC(=O)[C@@H]3C[C@@H](O)CN3C(=O)[C@H](C(C)C)N3Cc4ccccc4C3=O)C2=O)ccc1Oc1ccc(C#N)cc1C(F)(F)F [ARV N000220]
90	COc1cc(/C=C2\SC(=O)N(CCOCCCOCCCOc3cc(-c4scnc4C)ccc3CNC(=O)[C@@H]3C[C@@H](O)CN3C(=O)[C@H](C(C)C)N3Cc4ccccc4C3=O)C2=O)ccc1Oc1ccc(C#N)cc1C(F)(F)F [ARV N000222]
80	COc1cc(/C=C2\SC(=O)N(CCOCCOCCOCCOCCOCC(=O)N[C@H](C(=O)N3C[C@H](O)C[C@H]3C(=O)NCc3ccc(-c4scnc4C)cc3)C(C)(C)C)C2=O)ccc1Oc1ccc(C#N)cc1C(F)(F)F [ARV N000223]
98	COc1cc(/C=C2\SC(=O)N(CCOCCOCCCCCOCCOCCOc3cc(-c4scnc4C)ccc3CNC(=O)[C@@H]3C[C@@H](O)CN3C(=O)[C@H](C(C)C)N3Cc4ccccc4C3=O)C2=O)ccc1Oc1ccc(C#N)cc1C(F)(F)F [ARV N000231]
60	COc1cc(/C=C2\SC(=O)N(CCOCCOCCCCCOCCCCCOCCOCCOc3cc(-c4scnc4C)ccc3CNC(=O)[C@@H]3C[C@@H](O)CN3C(=O)[C@H](C(C)C)N3Cc4ccccc4C3=O)C2=O)ccc1Oc1ccc(C#N)cc1C(F)(F)F [ARV N000232]
60	COc1cc(/C=C2\SC(=O)N(CCCCOCCCCOCCCCOc3cc(-c4scnc4C)ccc3CNC(=O)[C@@H]3C[C@@H](O)CN3C(=O)[C@H](C(C)C)N3Cc4ccccc4C3=O)C2=O)ccc1Oc1ccc(C#N)cc1C(F)(F)F [ARV N000233]
95	COc1cc(/C=C2\SC(=O)N(CCOCCOCCCOCCOCCOCC(=O)N[C@H](C(=O)N3C[C@H](O)C[C@H]3C(=O)NCc3ccc(-c4scnc4C)cc3)C(C)(C)C)C2=O)ccc1Oc1ccc(C#N)cc1C(F)(F)F [ARV N000235]

The remaining lines, values behind:

SMILES	Dmax [%]
COc1cc(/C=C2\SC(=O)N(CCOCCC(=O)N[C@H](C(=O)N3CC(O)C[C@H]3C(=O)NCc3ccc(-c4scnc4C)cc3)C(C)(C)C)C2=O)ccc1Oc1ccc(C#N)cc1C(F)(F)F (stereo partly drawn) [ARV N000020]	98
COc1cc(/C=C2\SC(=O)N(CCOCCOCCCCOCCCCOCCOCC(=O)N[C@H](C(=O)N3C[C@H](O)C[C@H]3C(=O)NCc3ccc(-c4scnc4C)cc3)C(C)(C)C)C2=O)ccc1Oc1ccc(C#N)cc1C(F)(F)F [ARV N000200]	80
COc1cc(/C=C2\SC(=O)N(CCOCCOCCCCCOCCCCCOCCOCC(=O)N[C@H](C(=O)N3C[C@H](O)C[C@H]3C(=O)NCc3ccc(-c4scnc4C)cc3)C(C)(C)C)C2=O)ccc1Oc1ccc(C#N)cc1C(F)(F)F [ARV N000201]	90
COc1cc(/C=C2\SC(=O)N(CCOCCC(=O)N[C@H](C(=O)N3C[C@@H](O)C[C@H]3C(=O)NCc3ccc(-c4scnc4C)cc3)C(C)(C)C)C2=O)ccc1Oc1ccc(C#N)cc1C(F)(F)F [ARV N000203]	40
COc1cc(/C=C2\SC(=O)N(CCCCCOCCOCCC(=O)N[C@H](C(=O)N3CC(O)C[C@H]3C(=O)NCc3ccc(-c4scnc4C)cc3)C(C)(C)C)C2=O)ccc1Oc1ccc(C#N)cc1C(F)(F)F (stereo partly drawn) [ARV N000224]	90
COc1cc(/C=C2\SC(=O)N(CCOCCOCCOCCOCCOCCOCC(=O)N[C@H](C(=O)N3C[C@H](O)C[C@H]3C(=O)NCc3ccc(-c4scnc4C)cc3)C(C)(C)C)C2=O)ccc1Oc1ccc(C#N)cc1C(F)(F)F [ARV N000234]	98

Target: T1, ERRα
Assay: ERRα degradation in ST-486 cells
Format: cell-based
Parameters: degration of ERRα in either MCF-7 cells or ST-486 cells; endogenous in cells; host or cells: ST-486
Details: ST486, column C, read-out: ERRα Degradation Dmax (Estimated) ST-486 cells
Procedure: as §1, §2

Dmax [%]	SMILES
90	COc1cc(/C=C2\SC(=O)N(CCCCOCCOCCOCC(=O)N[C@H](C(=O)N3C[C@H](O)C[C@H]3C(=O)NCc3ccc(-c4scnc4C)cc3)C(C)(C)C)C2=O)ccc1Oc1ccc(C#N)cc1C(F)(F)F [ARV N000236]
80	COc1cc(/C=C2\SC(=O)N(CCOCCOCCCCOCCOCCOCC(=O)N[C@H](C(=O)N3C[C@H](O)C[C@H]3C(=O)NCc3ccc(-c4scnc4C)cc3)C(C)(C)C)C2=O)ccc1Oc1ccc(C#N)cc1C(F)(F)F [ARV N000244]
80	COc1cc(/C=C2\SC(=O)N(CCOCCOCCCCOCCOCCOc3cc(-c4scnc4C)ccc3CNC(=O)[C@@H]3C[C@@H](O)CN3C(=O)[C@H](C(C)C)N3Cc4ccccc4C3=O)C2=O)ccc1Oc1ccc(C#N)cc1C(F)(F)F [ARV N000265]
50	COc1cc(/C=C2\SC(=O)N(CCOCCOCCCCOCCCCOCCOCCOc3cc(-c4scnc4C)ccc3CNC(=O)[C@@H]3C[C@@H](O)CN3C(=O)[C@H](C(C)C)N3Cc4ccccc4C3=O)C2=O)ccc1Oc1ccc(C#N)cc1C(F)(F)F [ARV N000266]
80	COc1cc(/C=C2\SC(=O)N(CCOCCOCCCCCOCCOCCOCC(=O)N[C@H](C(=O)N3C[C@H](O)C[C@H]3C(=O)NCc3ccc(-c4scnc4C)cc3)C(C)(C)C)C2=O)ccc1Oc1ccc(C#N)cc1C(F)(F)F [ARV N000267]

The remaining lines, values behind:

SMILES	Dmax [%]
COc1cc(/C=C2\SC(=O)N(CCCCOCCCCOCCCCCCC(=O)N[C@H](C(=O)N3C[C@H](O)C[C@H]3C(=O)NCc3ccc(-c4scnc4C)cc3)C(C)(C)C)C2=O)ccc1Oc1ccc(C#N)cc1C(F)(F)F [ARV N000245]	40
COc1cc(/C=C2\SC(=O)N(CCCCOCCCCOCCCCCC(=O)N[C@H](C(=O)N3C[C@H](O)C[C@H]3C(=O)NCc3ccc(-c4scnc4C)cc3)C(C)(C)C)C2=O)ccc1Oc1ccc(C#N)cc1C(F)(F)F [ARV N000246]	90
COc1cc(/C=C2\SC(=O)N(Cc3ccccc3CC(=O)N[C@H](C(=O)N3C[C@H](O)C[C@H]3C(=O)NCc3ccc(-c4scnc4C)cc3)C(C)(C)C)C2=O)ccc1Oc1ccc(C#N)cc1C(F)(F)F [ARV N000381]	98
COc1cc(/C=C2\SC(=O)N(Cc3cccc(CC(=O)N[C@H](C(=O)N4C[C@H](O)C[C@H]4C(=O)NCc4ccc(-c5scnc5C)cc4)C(C)(C)C)c3)C2=O)ccc1Oc1ccc(C#N)cc1C(F)(F)F [ARV N000382]	98
COc1cc(/C=C2\SC(=O)N(CCOCCOCCOCC(=O)N[C@H](C(=O)N3C[C@H](O)C[C@H]3C(=O)NCc3ccc(-c4scnc4C)cc3)C(C)(C)C)C2=O)ccc1Oc1ccccc1C(F)(F)F [ARV N000383]	98
COc1cc(/C=C2\SC(=O)N(Cc3ccc(CC(=O)N[C@H](C(=O)N4C[C@H](O)C[C@H]4C(=O)NCc4ccc(-c5scnc5C)cc4)C(C)(C)C)cc3)C2=O)ccc1Oc1ccc(C#N)cc1C(F)(F)F [ARV N000413]	98
